From patent publication USRE37781E1, “Substituted cyclic carbonyls and derivatives thereof useful as retroviral protease inhibitors” (DuPont Pharmaceuticals Company, priority 1991, dated 2002)
≈ marks a conversion by molar mass, not a printed value.

Experiments:
[1] = target: single-chain tethered dimer of HIV protease (Human immunodeficiency virus 1, UniProt P04585); assay: biochemical; type: biochemical
Description: HIV Protease Inhibition Assay—HPLC Method
Active protease was prepared as described therein by extraction with 67% acetic acid, dilution 33-fold with water, dialysis against water and then against a “refolding buffer” consisting of 20 mM MES, 1 mM dithiothreitol and 10% glycerol. Protease was stored as a stock preparation at 10 uM in refolding buffer.
Substrate: Peptide of sequence: aminobenzoyl-Ala-Thr-His-Gln-Val-Tyr-Phe(NO2)-Val-Arg-Lys-Ala containing p-nitrophenylalanine, was prepared by solid phase synthesis as previously described Cheng et al., op.cit. Stock solutions of 2 mM substrate were prepared in DMSO.
Inhibitory compounds were dissolved in sufficient DMSO to make 3 mM stock solutions. All further dilutions were prepared in “assay buffer”: 1M NaCl, 50 mM MES, pH 5.5, 1 mM EDTA, 1 mM DTT, […] glycerol.
Enzyme reaction: In a 2 ml screw-cap centrifuge tube were added 50 ul protease (final concentration 0.25 nM) and 0.1 ml inhibitory compound (final concentration […]). After 15 min preincubation at room temperature, the reaction was started with the addition of 0.05 ml substrate (final concentration 5 uM). Incubation was carried out at 30 C. for 1 hr. The reaction was stopped with 1 ml 0.1M ammonium hydroxide.
HPLC measurement of product formation: The product (aminobenzoyl-Ala-Thr-His-Gln-Val-Tyr) was separated from substrate on a Pharmacia MonoQ anion exchange column. The injection volume was 0.2 ml. The mobile phases were: A (20 mM trisHCl, pH 9.0, 0.02% sodium Azide, 10% acetonitrile), B (20 mM tris HCl, pH 9.0, 0.02% sodium azide, 0.5M ammonium formate, 10% acetonitrile). The mobile phases were pumped at 1 ml/min, with a gradient from 0 to 30% B in 5 min, 100% B for 4 min to wash the column, and a re-equilibration for 4 min. The retention time of the product was 3.6 min. Detection with a Shimadzu model RF535 fluorescence monitor was at 330 nm (excitation) and 430 (emission).

HIV-1 (RF) in MT-2 cells = assay: microbe, parasite or virus in culture; type: cell-based; details: Human immunodeficiency virus 1, MT2, HIV RNA assay, HIV-1 infected MT-2 cells; class symbols; read-out: IC90
Summary of the method: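 HIV-1 laboratory strains (RF, MN, IIIB) grown in H9 cells in RPMI 1640 with 5% FCS; infections in MT-2 cells. Viral RNA quantified by hybridization with biotinylated gag/pol capture probes on streptavidin plates and alkaline phosphatase-conjugated reporter probes; BH10 gag-pol in vitro transcripts serve as RNA standards.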

| SMILES | Ki [1] | melting point | IC90 (HIV-1 (RF) in MT-2 cells) |
| --- | --- | --- | --- |
| COCCN1C(=O)N(CCOC)C(Cc2ccccc2)C(O)C(O)C1Cc1ccccc1 (stereo not drawn) [Example 3N] | 10 to 1000 nM | 183 to 185 °C | > 100 µg/mL |
| CCCCN1C(=O)N(Cc2ccc3ccccc3c2)C(Cc2ccccc2)C(O)C(O)C1Cc1ccccc1 (stereo not drawn) [Example 4U] | < 10 nM | 78 to 80 °C | < 10 µg/mL |
| O=C1N(Cc2ccc(O)cc2)C(Cc2ccccc2)C(O)C(O)C(Cc2ccccc2)N1Cc1ccc(O)cc1 (stereo not drawn) [Example 5R] | < 10 nM | 115 to 117 °C | < 10 µg/mL |
| O=C1NC(Cc2ccccc2)C(O)C(O)C(Cc2ccccc2)N1Cc1ccc2ccccc2c1 (stereo not drawn) [Example 4V] | < 10 nM | 210 to 213 °C | < 10 µg/mL |
| CCOCCN1C(=O)N(CCOCC)C(Cc2ccccc2)C(O)C(O)C1Cc1ccccc1 (stereo not drawn) [Example 3R] | > 1000 nM | 148 to 150 °C | > 100 µg/mL |
| O=C1N(Cc2cccc(C=NO)c2)C(Cc2ccccc2)C(O)C(O)C(Cc2ccccc2)N1Cc1cccc(C=NO)c1 (stereo not drawn) [Example 6C] | < 10 nM | 185 to 189 °C | < 10 µg/mL |
| C=CCOc1cccc(CN2C(=O)N(Cc3cccc(OCC=C)c3)C(Cc3ccccc3)C(O)C(O)C2Cc2ccccc2)c1 (stereo not drawn) [Example 5L] | < 10 nM | 170 to 172 °C | > 100 µg/mL |
| CCCCN1C(=O)N(Cc2ccccc2)C(Cc2ccccc2)C(O)C(O)C1Cc1ccccc1 (stereo not drawn) [Example 3V] | < 10 nM | 89 to 91 °C | < 10 µg/mL |
| CCOc1cccc(CN2C(=O)N(Cc3cccc(OCC)c3)C(Cc3ccccc3)C(O)C(O)C2Cc2ccccc2)c1 (stereo not drawn) [Example 5N] | 10 to 1000 nM | 185 to 186 °C | > 100 µg/mL |
| O=C1N(Cc2cc(F)cc(F)c2)C(Cc2ccccc2)C(O)C(O)C(Cc2ccccc2)N1Cc1cc(F)cc(F)c1 (stereo not drawn) [Example 6ZC] | 10 to 1000 nM | 167.9 °C | 10 to 100 µg/mL (≈ 17.3 to 173 µM) |
| O=C1N(Cc2ccc(OCc3ccccc3)cc2)C(Cc2ccccc2)C(O)C(O)C(Cc2ccccc2)N1Cc1ccc(OCc2ccccc2)cc1 (stereo not drawn) [Example 5P] | > 1000 nM | 80 to 81 °C | > 100 µg/mL |
| CC(C)=CCN1C(=O)N(Cc2ccccc2)C(Cc2ccccc2)C(O)C(O)C1Cc1ccccc1 (stereo not drawn) [Example 3Y] | < 10 nM | 173 to 174 °C | < 10 µg/mL |
| O=C1N(Cc2ccncc2)C(Cc2ccccc2)C(O)C(O)C(Cc2ccccc2)N1Cc1ccc2ccccc2c1 (stereo not drawn) [Example 4Z] | < 10 nM | 118 to 121 °C | < 10 µg/mL |
| O=C1NC(Cc2ccccc2)C(O)C(O)C(Cc2ccccc2)N1Cc1ccc(F)cc1 (stereo not drawn) [Example 6ZF] | < 10 nM | 188.9 °C | < 10 µg/mL |
| N#Cc1ccc(CN2C(=O)N(Cc3ccc(C#N)cc3)C(Cc3ccccc3)C(O)C(O)C2Cc2ccccc2)cc1 (stereo not drawn) [Example 5W] | < 10 nM | 140 to 143 °C | < 10 µg/mL |
| O=C1N(Cc2cc(Cl)cc(Cl)c2)C(Cc2ccccc2)C(O)C(O)C(Cc2ccccc2)N1Cc1cc(Cl)cc(Cl)c1 (stereo not drawn) [Example 6ZJ] | 10 to 1000 nM | 231.1 °C | 10 to 100 µg/mL (≈ 15.5 to 155 µM) |
| O=Cc1cccc(CN2C(=O)N(Cc3cccc(C=O)c3)C(Cc3ccccc3)C(O)C(O)C2Cc2ccccc2)c1 (stereo not drawn) [Example 5V] | < 10 nM | 175 to 176 °C | < 10 µg/mL |
| N#Cc1cccc(CN2C(=O)N(Cc3cccc(C#N)c3)C(Cc3ccccc3)C(O)C(O)C2Cc2ccccc2)c1 (stereo not drawn) [Example 4P] | < 10 nM | 225 to 227 °C | < 10 µg/mL |
| O=C1N(Cc2cccc(Br)c2)C(Cc2ccccc2)C(O)C(O)C(Cc2ccccc2)N1Cc1cccc(Br)c1 (stereo not drawn) [Example 6ZE] | < 10 nM | 210.7 °C | < 10 µg/mL |
| O=C1N(Cc2cccnc2)C(Cc2ccccc2)C(O)C(O)C(Cc2ccccc2)N1Cc1ccc2ccccc2c1 (stereo not drawn) [Example 5H] | < 10 nM | 94 to 96 °C | < 10 µg/mL |
